“Also recorded” adds a separate entry of the source. Read-outs that look alike come from different tables or passages of the source. Each block holds one molecule with its values, some of them ahead of it.
How the values were obtained:
[1] = tested on: TBZ-treated rats (catalepsy); test: Cross-legged position (CLP) catalepsy test, TBZ-induced catalepsy; assay type: in vivo, rat; details: TBZ 2 mg/kg i.p.
Protocol: Animals were obtained, housed and handled according to the same protocols described for Example 3. Similarly, drugs were prepared and administered according to the same protocols described for Example 3. All compounds were tested at the dose of 0.63 mg/kg.
Catalepsy induction in rats is a recognized model of Parkinsonism (Duty, S., 2011 Br J Pharmacol. 164, 1357-91). Here, catalepsy was measured using the cross-legged position test (CLP test) according to the method described by (Prinssen, E. P., et al., 1998 Eur J Pharmacol. 356, 189-92). Serotonin 5-HT1A receptor agonists were administered to rats (at least 6 per group) by oral administration (p.o.) 55 minutes before the CLP test, TBZ (2 mg/kg) was administered to rats by intraperitoneal (i.p.) route 30 min before testing. In the CLP test, the hind-limbs were placed over the ipsilateral forelimbs and the time during which an animal remained in this position was determined up to maximum of 30 seconds. The test was repeated three times (inter-trial time: 3 minutes) and the mean of the three trials was used for analysis. Animals were put back in their home cage after each set of tests.

[2] = cited from earlier work
[3] = molecular target: T1, serotonin 5-HT1A receptors (Rattus norvegicus, UniProt P19327); test: [35S]GTPγS binding G-protein activation assay, rat hippocampal membranes; assay type: biochemical; details: for Emax: read-out: Emax, stimulation of [35S]GTPγS binding relative to 5-HT
T1 construct: Hippocampi were dissected and homogenized in 20 volumes of buffer A; from tissue; host or cells: rat hippocampus membranes (male Sprague-Dawley)
T1 sequence (P19327 1-422): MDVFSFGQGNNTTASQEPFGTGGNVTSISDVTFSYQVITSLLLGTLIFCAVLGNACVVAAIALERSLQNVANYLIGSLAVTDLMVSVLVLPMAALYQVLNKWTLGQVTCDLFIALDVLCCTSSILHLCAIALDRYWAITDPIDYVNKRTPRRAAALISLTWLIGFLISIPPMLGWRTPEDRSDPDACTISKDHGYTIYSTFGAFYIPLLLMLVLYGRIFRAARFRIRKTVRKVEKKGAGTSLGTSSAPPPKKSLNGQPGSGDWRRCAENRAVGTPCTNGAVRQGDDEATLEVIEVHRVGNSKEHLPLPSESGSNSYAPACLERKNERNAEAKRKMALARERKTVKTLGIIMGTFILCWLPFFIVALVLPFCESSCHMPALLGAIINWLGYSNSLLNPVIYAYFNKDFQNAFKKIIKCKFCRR
Protocol: Agonist efficacy for stimulation of G-protein activation at serotonin 5-HT1A receptors can be determined by [^35S]GTPγS binding assays as follows. Experiments employed brains of male Sprague-Dawley rats which were stored at −70° C. before use in binding assays. Experiments were carried out in triplicate and repeated at least three times. Frozen brains were thawed in ice-cold buffer A (50 mM Hepes containing 150 mM NaCl, 0.2 mM EDTA, 1 mM GTP, 10 μM pargyline; pH 7.4, 23° C.). Hippocampi were dissected and homogenized in 20 volumes of buffer A before incubation at 37° C. for 10 min to dissociate endogenous neurotransmitters from receptors. The homogenate was centrifuged at 20 000 g for 15 min, at 4° C. The pellet was re-suspended in buffer A and recentrifuged as before. The pellet was then re-suspended in buffer B (50 mM Hepes containing 150 mM NaCl, 0.2 mM EDTA, 5 mM MgCl2, 100 μM GDP, 10 μM pargyline), centrifuged as before and re-suspended in buffer B. Membranes were incubated in buffer B with test compounds and 0.1 nM [^35S]GTPγS for 60 min at 37° C. The incubation was terminated by rapid filtration through Whatman GF-B fiber filters using a Brandel harvester. Radioactivity retained on the filters was measured by liquid scintillation counting. Data were analyzed using a nonlinear curve-fitting program (Prism, Graphpad Software, San Diego, Calif., USA), and are expressed as mean value±S.E.M.
It should be noted that 5-HT can activate different 5-HT receptors. Herein, only the proportion of 5-HT's effect which is 5-HT1A receptor-dependent was considered in the calculations.

[4] = tested on: patients with chorea associated with HD; details: cited from earlier work
[5] = molecular target: other 5-HT, dopaminergic, adrenergic receptors; details: cited from earlier work
[6] = tested on: TBZ-treated rats (immobility, depression behavior); test: Forced Swim Test, 5-HT1A receptor agonists in TBZ-treated rats; assay type: in vivo, rat; details: TBZ […] i.p.
Protocol: The experiments were performed on male Wistar rats (170-200 g) obtained from an accredited animal facility at the Jagiellonian University Medical College, Poland. The animals were housed in group of four in controlled environment (ambient temperature […]; relative humidity 55%±10%; 12-h light/dark cycles (lights on at 8:00). Standard laboratory food (LSM-B) and filtered water were freely available. Animals were assigned randomly to treatment groups. All the experiments were performed by two observers unaware of the treatment applied between 9:00 and 14:00 on separate groups of animals. All animals were used only once. All the experimental procedures complied with the European Communities Council Directive of 24 Nov. 1986 (86/609/EEC) and were in accordance with the 1996 NIH Guide for the Care and Use of Laboratory Animals.
Tetrabenazine (TBZ) was dissolved in a vehicle solution of 0.9% saline and dimethylsulfoxide (DMSO) (20%). 10-μl hydrochloric acid (HCl) was then added to achieve full solubilization of the drug. TBZ (1.5 mg/kg) was administered intraperitoneally (i.p.).
All compounds were given in a volume of 2 ml/kg. […]
The experiment was carried out according to a well-characterized method (Porsolt, R. D., et al., 1978 Eur J Pharmacol 47, 379-91). On the first day of an experiment, the animals (at least n=6 per group) were gently individually placed in Plexiglas cylinders (40 cm high, 18 cm in diameter) containing water (17 cm deep) maintained at 23-25° C. for 15 min. On removal from water, the rats were placed for 30 min in a Plexiglas box under a 60 W incandescent filament bulb to dry. On the following day (24 h later), TBZ (1.5 mg/kg) was administered to rats by intraperitoneal (i.p.) route 90 min before testing. Serotonin 5-HT1A receptor agonists were then administered to rats by oral administration (p.o.) 60 minutes before the rats were re-placed in the cylinder and the total duration of their immobility was recorded during the 5-min test period. The swimming behavior entailed active swimming motions, e.g., moving horizontally around in the cylinder, and immobility was assigned when no additional activity was observed other than that necessary to keep the rat's head above the water.

[7] = 0.63 mg/kg p.o. ((±)8-OH-DPAT s.c.)
[8] = agonist 10 μM, % of stimulation by 5-HT 10 μM (5-HT1A-dependent part)

SMILES: CCCN(CCC)C1CCc2cccc(O)c2C1 (racemic) [(±)8-OH-DPAT, (±)8-hydroxy-2-(di-n-propylamino)tetralin]
effect on TBZ-induced CLP catalepsy duration [1, 7]: almost no CLP catalepsy; also recorded: significantly decreased durations of immobility | oral bioavailability [2]: poorly bioavailable by oral route | Emax, stimulation of [35S]GTPγS binding relative to 5-HT [3, 8]: intermediate between that of buspirone and the other compounds; also recorded: intermediate efficacy

SMILES: COc1cc2c(cc1OC)[C@@H]1CC(=O)[C@@H](CC(C)C)CN1CC2 (racemic) [TBZ, (SS,RR)-3-Isobutyl-9,10-dimethoxy-1,3,4,6,7,11b-hexahydro-pyrido[2,1-a]isoquinolin-2-one]
patients with symptoms suggestive of Parkinsonism ([4]; 12-week double-blind, placebo-controlled study, placebo 0%): 15% | patients with symptoms suggestive of Parkinsonism ([4]; 48-week open-label study): 10% | patients with symptoms suggestive of Parkinsonism ([4]; 80-week open-label study): 3%

share of 5-HT-induced [35S]GTPγS binding mediated by 5-HT1A receptors ([3]; from WAY100635 (1 μM) co-incubation): 85%
SMILES: NCCc1c[nH]c2ccc(O)cc12 [5-HT, 5-hydroxytryptamine]

SMILES: Cc1ccc(CNCC2(F)CCN(C(=O)c3ccc(F)c(Cl)c3)CC2)nc1 [befiradol, (3-Chloro-4-fluoro-phenyl)-[4-fluoro-4-{[(5-methyl-pyridin-2-ylmethyl)-amino]-methyl}piperidin-1-yl]methanone]
effect on TBZ-induced CLP catalepsy duration [1, 7]: almost no CLP catalepsy; also recorded: significantly decreased durations of immobility | pKi at other 5-HT, dopaminergic, adrenergic receptors [5]: less than 6 | effect on immobility duration in TBZ-treated rats [6, 7]: significantly decreased durations of immobility | effect on immobility duration in TBZ-treated rats ([6]; 0.63 mg/kg p.o. ((±)8-OH-DPAT s.c.), listed as Befiradol): significantly reduced immobility times | Emax [3]: > 90%

Emax [3, 8]: ~50%
SMILES: O=C1CC2(CCCC2)CC(=O)N1CCCCN1CCN(c2ncccn2)CC1 [buspirone]
effect on TBZ-induced CLP catalepsy duration ([1]; buspirone 0.63, 2.5 or 5 mg/kg): does not diminish TBZ-induced catalepsy behavior; also recorded: None of the doses of buspirone showed durations of catalepsy that differed significantly | effect on immobility duration in TBZ-treated rats ([6]; buspirone 0.63 or 2.5 mg/kg p.o.): did not reduce immobility | effect on immobility duration in TBZ-treated rats ([6]; buspirone 0.63 or 2.5 mg/kg p.o., listed as Buspirone): did not reduce immobility duration significantly

SMILES: Cc1cnc(CNCC2(F)CCN(C(=O)c3ccc(F)c(Cl)c3)CC2)nc1 [derivative 1a, 3-chloro-4-fluorophenyl-[4-fluoro-4-[[(5-methylpyrimidin-2-ylmethyl)amino]methyl]piperidin-1-yl]methanone]
effect on TBZ-induced CLP catalepsy duration [1, 7]: almost no CLP catalepsy; also recorded: significantly decreased durations of catalepsy | Emax [3]: > 90%

Reference: US11191758B2, “Use of selective serotonin 5-HT1A receptor agonists for treating side-effects of VMAT inhibitors” (Neurolixis, priority 2017, dated 2021)
